ChEMBL document CHEMBL1126387, “Use of transferred nuclear overhauser effects to determine the conformation of 1-(3,4-dichlorophenyl)-2-aminopropane when bound to the active site of phenylethanolamine N-methyltransferace (PNMT)” (Bioorg Med Chem Lett, 1992)

Target: T1, Phenylethanolamine N-methyltransferase (Bos taurus, UniProt P10938)
T1 sequence (P10938 whole entry): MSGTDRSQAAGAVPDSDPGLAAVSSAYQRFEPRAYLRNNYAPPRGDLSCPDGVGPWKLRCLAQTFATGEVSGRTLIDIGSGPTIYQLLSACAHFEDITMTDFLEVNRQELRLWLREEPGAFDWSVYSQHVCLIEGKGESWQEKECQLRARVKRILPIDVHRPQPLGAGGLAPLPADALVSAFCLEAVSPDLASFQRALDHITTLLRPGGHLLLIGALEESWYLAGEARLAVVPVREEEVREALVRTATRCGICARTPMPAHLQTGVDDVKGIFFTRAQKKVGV
Assay: Inhibitory activity against bovine adrenal phenylethanolamine N-methyltransferase(PNMT)

CC(N)Cc1ccc(Cl)c(Cl)c1 (stereo unspecified)
Ki: 6.7 µM
